From ChEMBL document CHEMBL1125965, “Synthesis and pharmacological evaluation of novel Amino-prostanoids: potent and orally effective thromboxane A2 receptor antagonists” (Bioorg Med Chem Lett, 1991)
Values joined by “and” are separate entries in the source; they are usually repeats but may differ in a detail not shown here. Equal entries are not always repeated.

Legend:
Thromboxane A2 receptor [1] = target: T1, Thromboxane A2 receptor (Homo sapiens, UniProt P21731); test: In vitro thromboxane A2 receptor antagonism through inhibition of U-46619-induced platelet aggregation in human whole blood; format: functional, tissue-based; conditions: read-out: pA2 (converted)
T1 sequence (P21731 whole entry): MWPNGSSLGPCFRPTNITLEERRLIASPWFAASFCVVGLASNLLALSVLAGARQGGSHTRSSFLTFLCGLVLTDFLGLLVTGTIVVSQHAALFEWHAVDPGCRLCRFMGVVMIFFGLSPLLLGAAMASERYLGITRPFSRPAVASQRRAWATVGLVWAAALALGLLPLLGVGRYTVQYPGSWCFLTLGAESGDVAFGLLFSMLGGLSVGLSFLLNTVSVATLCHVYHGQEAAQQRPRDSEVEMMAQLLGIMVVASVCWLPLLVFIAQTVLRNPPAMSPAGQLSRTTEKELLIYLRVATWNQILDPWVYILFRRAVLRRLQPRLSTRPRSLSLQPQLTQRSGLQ

Thromboxane A2 receptor [2] = target: T2, Thromboxane A2 receptor (Rattus norvegicus, UniProt P34978); test: In vitro thromboxane A2 receptor antagonism through inhibition of U-46619-induced contraction of rat isolated thoracic aortic strip; format: functional; conditions: read-out: pA2 (converted)
T2 sequence (P34978 whole entry): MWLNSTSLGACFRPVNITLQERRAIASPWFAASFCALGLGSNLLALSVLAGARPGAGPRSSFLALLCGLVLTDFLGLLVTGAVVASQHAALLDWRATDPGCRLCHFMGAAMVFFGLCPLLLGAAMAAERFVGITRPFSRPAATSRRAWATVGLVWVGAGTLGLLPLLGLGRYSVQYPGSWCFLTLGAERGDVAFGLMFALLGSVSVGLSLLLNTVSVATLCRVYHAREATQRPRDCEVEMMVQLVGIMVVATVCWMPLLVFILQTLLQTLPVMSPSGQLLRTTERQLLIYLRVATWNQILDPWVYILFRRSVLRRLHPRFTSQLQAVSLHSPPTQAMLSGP

[3] = target: T3, Thromboxane A2 receptor (Rattus norvegicus) (UniProt P34978); test: In vitro thromboxane receptor antagonism through inhibition of U-46619-induced contraction of rat isolated thoracic aortic strip; format: functional
T3 sequence (whole entry): T2 sequence (P34978 whole entry)

Row | Kb (Thromboxane A2 receptor [1]) | Kb (Thromboxane A2 receptor [2]) | pKb [3] | SMILES
1 | 12.6 nM | 25.1 nM | – | O=C(O)CC/C=C\CO[C@H]1C(OCc2ccc(-c3ccccc3)cc2)CC[C@@H]1N1CCCCCC1 (stereo not given in full)
2 | 3.98 nM | 50.1 nM | – | O=C(O)CC/C=C\CO[C@H]1[C@@H](OCc2ccc(-c3ccc(CO)cc3)cc2)CC[C@@H]1N1CCCCCC1
3 | 100 nM | 1000 nM | – | O=C(O)CC/C=C\CO[C@@H]1[C@@H](OCc2ccc(-c3ccccc3)cc2)CC[C@@H]1N1CCCCC1
4 | 3.16 nM | 15.8 nM | – | CNS(=O)(=O)Cc1ccc(-c2ccc(COC3CC[C@H](N4CCCCCC4)[C@H]3OC/C=C\CCC(=O)O)cc2)cc1 (stereo not given in full)
5 | 63.1 nM and 15.8 nM | – | – | O=C(O)CC/C=C\CO[C@H]1C(OCc2ccc(-c3ccccc3)cc2)CC[C@@H]1N1CCCCC1 (stereo not given in full)
6 | 15.8 nM | 15.8 nM | – | NC(=O)c1ccccc1-c1ccc(COC2CC[C@H](N3CCCCCC3)[C@H]2OC/C=C\CCC(=O)O)cc1 (stereo not given in full)
7 | 3.98 nM | 20 nM | – | NC(=O)Cc1ccc(-c2ccc(COC3CC[C@H](N4CCCCCC4)[C@H]3OC/C=C\CCC(=O)O)cc2)cc1 (stereo not given in full)
8 | 10 nM and 7.94 nM | 31.6 nM and 50.1 nM | – | O=C(O)CC/C=C\CO[C@H]1[C@@H](OCc2ccc(-c3ccccc3)cc2)CC[C@@H]1N1CCCCC1
9 | 3.16 nM | 6.31 nM | – | O=C(O)CC/C=C\CO[C@H]1C(OCc2ccc(-c3ccccc3CO)cc2)CC[C@@H]1N1CCCCCC1 (stereo not given in full)
10 | 3.16 nM | 20 nM | – | O=C(O)CC/C=C\CO[C@H]1C(OCc2ccc(-c3ccc(CO)cc3)cc2)CC[C@@H]1N1CCCCCC1 (stereo not given in full)
11 | 5.01 nM | 39.8 nM | – | O=C(O)CC/C=C\CO[C@H]1[C@@H](OCc2ccc(-c3ccccc3)cc2)CC[C@@H]1N1CCCCCC1
12 | 25.1 nM | 126 nM | – | CC(=O)NCc1ccccc1-c1ccc(COC2CC[C@H](N3CCCCCC3)[C@H]2OC/C=C\CCC(=O)O)cc1 (stereo not given in full)
13 | 39.8 nM | 15.8 nM | – | O=C(O)CC/C=C\CO[C@@H]1C(OCc2ccc(-c3ccccc3)cc2)CC[C@@H]1N1CCCCC1 (stereo not given in full)
14 | 15.8 nM | 20 nM | – | O=C(O)CC/C=C\CO[C@H]1C(OCc2ccc(-c3ccccc3O)cc2)CC[C@@H]1N1CCCCCC1 (stereo not given in full)
15 | 6.31 nM | 63.1 nM | – | CS(=O)(=O)Nc1ccccc1-c1ccc(CO[C@H]2CC[C@H](N3CCCCCC3)[C@H]2OC/C=C\CCC(=O)O)cc1
16 | 7.94 nM | 158 nM | – | NC(=O)Cc1ccccc1-c1ccc(COC2CC[C@H](N3CCCCCC3)[C@H]2OC/C=C\CCC(=O)O)cc1 (stereo not given in full)
17 | 2 nM | 31.6 nM | – | O=C(O)CC/C=C\CO[C@H]1C(OCc2ccc(-c3ccccc3CCO)cc2)CC[C@@H]1N1CCCCCC1 (stereo not given in full)
18 | 1.58 nM | 12.6 nM | – | O=C(O)CC/C=C\CO[C@H]1[C@@H](OCc2ccc(-c3ccccc3CO)cc2)CC[C@@H]1N1CCCCCC1
19 | 7.94 nM | 12.6 nM | – | O=C(O)CC/C=C\CO[C@H]1C(OCc2ccc(-c3cccc(CO)c3)cc2)CC[C@@H]1N1CCCCCC1 (stereo not given in full)
20 | 7.94 nM | 63.1 nM | – | NC(=O)Nc1ccccc1-c1ccc(COC2CC[C@H](N3CCCCCC3)[C@H]2OC/C=C\CCC(=O)O)cc1 (stereo not given in full)
21 | 7.94 nM | 12.6 nM | – | CNS(=O)(=O)Cc1ccccc1-c1ccc(COC2CC[C@H](N3CCCCCC3)[C@H]2OC/C=C\CCC(=O)O)cc1 (stereo not given in full)
22 | 6.31 nM | – | 8.5 | O=C(O)CC/C=C\CO[C@H]1[C@H](OCc2ccc(-c3ccccc3CO)cc2)CC[C@@H]1N1CCCCCC1
23 | 2.51 nM | 20 nM | – | CC(=O)NCc1ccc(-c2ccc(COC3CC[C@H](N4CCCCCC4)[C@H]3OC/C=C\CCC(=O)O)cc2)cc1 (stereo not given in full)
24 | 12.6 nM | 50.1 nM | – | CS(=O)(=O)Nc1cccc(-c2ccc(COC3CC[C@H](N4CCCCCC4)[C@H]3OC/C=C\CCC(=O)O)cc2)c1 (stereo not given in full)
25 | 10 nM | 3.98 nM | – | CS(=O)(=O)Nc1ccccc1-c1ccc(COC2CC[C@H](N3CCCCCC3)[C@H]2OC/C=C\CCC(=O)O)cc1 (stereo not given in full)
26 | 6.31 nM | 6.31 nM | – | O=C(O)CC/C=C\CO[C@H]1C(OCc2ccc(-c3ccc(O)cc3)cc2)CC[C@@H]1N1CCCCCC1 (stereo not given in full)
27 | 5.01 nM | 79.4 nM | – | O=C(O)CC/C=C\CO[C@H]1[C@@H](OCc2ccc(-c3cccc(CO)c3)cc2)CC[C@@H]1N1CCCCCC1
28 | 3.16 nM | 20 nM | – | NC(=O)c1ccc(-c2ccc(COC3CC[C@H](N4CCCCCC4)[C@H]3OC/C=C\CCC(=O)O)cc2)cc1 (stereo not given in full)
